{"source": "paper PMC7898037", "about": "“Improving mitochondria and ER stability helps eliminate upper motor neuron degeneration that occurs due to mSOD1 toxicity and TDP‐43 pathology” (Clinical and Translational Medicine, 2021)", "test_system": "WT‐UeGFP mice", "test": "Hanging wire test (max 60 s), WT‐UeGFP mice", "type": "in vivo", "set-up": "Mean Diff. (wire hanging), vehicle vs. NU-9 / Mean (wire hanging): unit not given here", "details": "for Hanging wire test, group mean (Mean 1 / Mean 2): WT-UeGFP mice; for wire hanging, Average / Mean (wire hanging): WT-UeGFP", "procedure": "hSOD1^G93A‐UeGFP, prpTDP‐43^A315T‐UeGFP and WT‐UeGFP mice were weighed and the required NU‐9 dose per weight was calculated (20 or 100 mg/kg), which was administered once daily by oral gavage, starting at postnatal day (P)60 and continuing until P120. Animals from the untreated group received the vehicle (NMP and olive oil) only. For oral administration purposes, 20 ga × 38 mm plastic feeding tubes were used (Instech Laboratories, Inc). The gavage tip was inserted into the mouth directly over the tongue and into the pharynx. While observing the swallowing reflex, the tip was safely and smoothly slid into the esophagus. Once the administration was completed, the gavage tip was pulled straight out.\nBehavior data were collected from hSOD1^G93A‐UeGFP and WT‐UeGFP mice (starting at P60 and every 7 days until P116) and from prpTDP‐43^A315T‐UeGFP mice (at P60, P90, and P120) with the following number of mice for each group: WT‐UeGFP vehicle (n = 10), hSOD1^G93A‐UeGFP vehicle (n = 6), WT‐UeGFP 20 mg/kg/day NU‐9 (n = 5), hSOD1^G93A‐UeGFP 20 mg/kg/day NU‐9 (n = 7), WT‐UeGFP 100 mg/kg/day NU‐9 (n = 11), hSOD1^G93A‐UeGFP 100 mg/kg/day NU‐9 (n = 9), prpTDP‐43^A315T‐UeGFP untreated (n ≥ 3), and prpTDP‐43^A315T‐UeGFP 100 mg/kg/day NU‐9 (n = 4) (Table S3).\nMice were placed on a wire mesh, which was then inverted and suspended above the home cage; the time when the animal fell was recorded. This test was performed three times for a maximum of 60 s each session, with a 1‐min rest period between each trial. The average performance for each session is presented as the average of the three trials.", "key": {"[1]": {"details": "WT-UeGFP vehicle vs. NU-9 20 mg/kg/day, P102"}, "[2]": {"details": "WT-UeGFP vehicle vs. NU-9 20 mg/kg/day, P109"}, "[3]": {"details": "WT-UeGFP vehicle vs. NU-9 20 mg/kg/day, P116"}, "[4]": {"details": "WT-UeGFP vehicle vs. NU-9 100 mg/kg/day, P102"}, "[5]": {"details": "WT-UeGFP vehicle vs. NU-9 100 mg/kg/day, P109"}, "[6]": {"details": "WT-UeGFP vehicle vs. NU-9 100 mg/kg/day, P116"}}}
{"smiles": "C[C@H](Oc1cc(C(F)(F)F)cc(C(F)(F)F)c1)C1CC(=O)CC(=O)C1", "note": "[NU‐9]", "values": [{"measurement": "Hanging wire test, group mean (Mean 1 / Mean 2)", "setting": "NU-9 20 mg/kg/day, P102, max 60 s", "result": 60, "unit": "s"}, {"measurement": "Hanging wire test, group mean (Mean 1 / Mean 2)", "setting": "NU-9 20 mg/kg/day, P109, max 60 s", "result": 60, "unit": "s"}, {"measurement": "Hanging wire test, group mean (Mean 1 / Mean 2)", "setting": "NU-9 20 mg/kg/day, P116, max 60 s", "result": 60, "unit": "s"}, {"measurement": "Hanging wire test, group mean (Mean 1 / Mean 2)", "setting": "NU-9 100 mg/kg/day, P102, max 60 s", "result": 60, "unit": "s"}, {"measurement": "Hanging wire test, group mean (Mean 1 / Mean 2)", "setting": "NU-9 100 mg/kg/day, P109, max 60 s", "result": 60, "unit": "s"}, {"measurement": "Hanging wire test, group mean (Mean 1 / Mean 2)", "setting": "NU-9 100 mg/kg/day, P116, max 60 s", "result": 59.7, "unit": "s"}, {"measurement": "Mean Diff. (wire hanging), vehicle vs. NU-9", "setting": "WT-UeGFP vehicle vs. NU-9 20 mg/kg/day, P60", "result": 0}, {"measurement": "Mean Diff. (wire hanging), vehicle vs. NU-9", "setting": "WT-UeGFP vehicle vs. NU-9 20 mg/kg/day, P67", "result": 0.3333}, {"measurement": "Mean Diff. (wire hanging), vehicle vs. NU-9", "setting": "WT-UeGFP vehicle vs. NU-9 20 mg/kg/day, P74", "result": 2.267}, {"measurement": "Mean Diff. (wire hanging), vehicle vs. NU-9", "setting": "WT-UeGFP vehicle vs. NU-9 20 mg/kg/day, P81", "result": 0}, {"measurement": "Mean Diff. (wire hanging), vehicle vs. NU-9", "setting": "WT-UeGFP vehicle vs. NU-9 20 mg/kg/day, P88", "result": 0}, {"measurement": "Mean Diff. (wire hanging), vehicle vs. NU-9", "setting": "WT-UeGFP vehicle vs. NU-9 20 mg/kg/day, P95", "result": 2}, {"measurement": "Hanging wire test, mean difference vehicle minus NU-9", "setting": "[1]", "result": 0, "unit": "s"}, {"measurement": "Mean Diff. (wire hanging), vehicle vs. NU-9", "setting": "[1]", "result": 0}, {"measurement": "Hanging wire test, mean difference vehicle minus NU-9", "setting": "[2]", "result": 0, "unit": "s"}, {"measurement": "Mean Diff. (wire hanging), vehicle vs. NU-9", "setting": "[2]", "result": 0}, {"measurement": "Hanging wire test, mean difference vehicle minus NU-9", "setting": "[3]", "result": 0, "unit": "s"}, {"measurement": "Mean Diff. (wire hanging), vehicle vs. NU-9", "setting": "[3]", "result": 0}, {"measurement": "Mean Diff. (wire hanging), vehicle vs. NU-9", "setting": "WT-UeGFP vehicle vs. NU-9 100 mg/kg/day, P60", "result": 1.273}, {"measurement": "Mean Diff. (wire hanging), vehicle vs. NU-9", "setting": "WT-UeGFP vehicle vs. NU-9 100 mg/kg/day, P67", "result": 0}, {"measurement": "Mean Diff. (wire hanging), vehicle vs. NU-9", "setting": "WT-UeGFP vehicle vs. NU-9 100 mg/kg/day, P74", "result": 0}, {"measurement": "Mean Diff. (wire hanging), vehicle vs. NU-9", "setting": "WT-UeGFP vehicle vs. NU-9 100 mg/kg/day, P81", "result": 0}, {"measurement": "Mean Diff. (wire hanging), vehicle vs. NU-9", "setting": "WT-UeGFP vehicle vs. NU-9 100 mg/kg/day, P88", "result": 0.1818}, {"measurement": "Mean Diff. (wire hanging), vehicle vs. NU-9", "setting": "WT-UeGFP vehicle vs. NU-9 100 mg/kg/day, P95", "result": 0}, {"measurement": "Hanging wire test, mean difference vehicle minus NU-9", "setting": "[4]", "result": 0, "unit": "s"}, {"measurement": "Mean Diff. (wire hanging), vehicle vs. NU-9", "setting": "[4]", "result": 0}, {"measurement": "Hanging wire test, mean difference vehicle minus NU-9", "setting": "[5]", "result": 0, "unit": "s"}, {"measurement": "Mean Diff. (wire hanging), vehicle vs. NU-9", "setting": "[5]", "result": 0}, {"measurement": "Hanging wire test, mean difference vehicle minus NU-9", "setting": "[6]", "result": 0.303, "unit": "s"}, {"measurement": "Mean Diff. (wire hanging), vehicle vs. NU-9", "setting": "[6]", "result": 0.303}, {"measurement": "wire hanging, Average", "setting": "NU-9 20 mg/kg/day po, P60", "result": 60, "unit": "s"}, {"measurement": "wire hanging, Average", "setting": "NU-9 20 mg/kg/day po, P67", "result": 59.6667, "unit": "s"}, {"measurement": "wire hanging, Average", "setting": "NU-9 20 mg/kg/day po, P74", "result": 57.7333, "unit": "s"}, {"measurement": "wire hanging, Average", "setting": "NU-9 20 mg/kg/day po, P81", "result": 60, "unit": "s"}, {"measurement": "wire hanging, Average", "setting": "NU-9 20 mg/kg/day po, P88", "result": 60, "unit": "s"}, {"measurement": "wire hanging, Average", "setting": "NU-9 20 mg/kg/day po, P95", "result": 58, "unit": "s"}, {"measurement": "wire hanging, Average", "setting": "NU-9 20 mg/kg/day po, P102", "result": 60, "unit": "s"}, {"measurement": "wire hanging, Average", "setting": "NU-9 20 mg/kg/day po, P109", "result": 60, "unit": "s"}, {"measurement": "wire hanging, Average", "setting": "NU-9 20 mg/kg/day po, P116", "result": 60, "unit": "s"}, {"measurement": "Mean (wire hanging)", "setting": "NU-9 20 mg/kg/day, P60", "result": 60}, {"measurement": "Mean (wire hanging)", "setting": "NU-9 20 mg/kg/day, P67", "result": 59.67}, {"measurement": "Mean (wire hanging)", "setting": "NU-9 20 mg/kg/day, P74", "result": 57.73}, {"measurement": "Mean (wire hanging)", "setting": "NU-9 20 mg/kg/day, P81", "result": 60}, {"measurement": "Mean (wire hanging)", "setting": "NU-9 20 mg/kg/day, P88", "result": 60}, {"measurement": "Mean (wire hanging)", "setting": "NU-9 20 mg/kg/day, P95", "result": 58}, {"measurement": "wire hanging, Average", "setting": "NU-9 100 mg/kg/day po, P60", "result": 58.7273, "unit": "s"}, {"measurement": "wire hanging, Average", "setting": "NU-9 100 mg/kg/day po, P67", "result": 60, "unit": "s"}, {"measurement": "wire hanging, Average", "setting": "NU-9 100 mg/kg/day po, P74", "result": 60, "unit": "s"}, {"measurement": "wire hanging, Average", "setting": "NU-9 100 mg/kg/day po, P81", "result": 60, "unit": "s"}, {"measurement": "wire hanging, Average", "setting": "NU-9 100 mg/kg/day po, P88", "result": 59.8182, "unit": "s"}, {"measurement": "wire hanging, Average", "setting": "NU-9 100 mg/kg/day po, P95", "result": 60, "unit": "s"}, {"measurement": "wire hanging, Average", "setting": "NU-9 100 mg/kg/day po, P102", "result": 60, "unit": "s"}, {"measurement": "wire hanging, Average", "setting": "NU-9 100 mg/kg/day po, P109", "result": 60, "unit": "s"}, {"measurement": "wire hanging, Average", "setting": "NU-9 100 mg/kg/day po, P116", "result": 59.697, "unit": "s"}, {"measurement": "Mean (wire hanging)", "setting": "NU-9 100 mg/kg/day, P60", "result": 58.73}, {"measurement": "Mean (wire hanging)", "setting": "NU-9 100 mg/kg/day, P67", "result": 60}, {"measurement": "Mean (wire hanging)", "setting": "NU-9 100 mg/kg/day, P74", "result": 60}, {"measurement": "Mean (wire hanging)", "setting": "NU-9 100 mg/kg/day, P81", "result": 60}, {"measurement": "Mean (wire hanging)", "setting": "NU-9 100 mg/kg/day, P88", "result": 59.82}, {"measurement": "Mean (wire hanging)", "setting": "NU-9 100 mg/kg/day, P95", "result": 60}]}
